Reference: patent publication US11666559B2, “Spiro-lactam compounds, process and uses thereof” (UNIVERSIDADE DE COIMBRA, priority 2017, dated 2023)

System: HIV
Experiment: Anti-HIV activity evaluation (HIV type not specified)
Type: cell-based
Conditions: both CCR-tropic isolates and CXCR4-tropic isolates; concentration of 15.2 μM
Experimental: In an embodiment, TZM-bl cells (AIDS Research and Reference Reagent Program, National Institutes of Health, USA) were cultured in complete growth medium that consists of Dulbecco's minimal essential medium (DMEM) supplemented with 10% fetal bovine serum (FBS), 100 U/ml of penicillin-streptomycin (Gibco/Invitrogen, USA), 1 mM of sodium pyruvate (Gibco/Invitrogen, USA), 2 mM of L-glutamine (Gibco/Invitrogen, USA) and 1 mM of non-essential amino acids (Gibco/Invitrogen, USA).
In an embodiment, the primary isolates 93AOHDC249, 93AOHDC250, 01PTHDECJN and 03PTHCC9, used in this study were previously isolated, titrated and characterized for co-receptor usage. HIV reference strain SG3.1 was obtained by transfection of HEK293T cells with pSG3.1 (HIV-1) plasmid using Fugene 6 reagent (Roche, Switzerland) according to manufacturer's instructions.
In an embodiment, the 50% tissue culture infectious dose (TCID50) of the virus was determined in a single-round viral infectivity assay using a luciferase reporter gene assay in TZM-bl cells and calculated using the statistical method of Reed and Muench^27.
In an embodiment, the antiviral activity of the compounds was determined in a single-round assay with TZM-bl cells as previously described ^26. […] After 48 h of infection, luciferase expression was quantified with the One-Glow luciferase assay substrate reagent (Promega, USA) according to manufacturer's instructions. […] After an incubation of 3 minutes at room temperature to allow complete cell lysis luminescence was measured in Tecan Infinite M200. Background luminescence was measured by using control wells that contained only target cells and GM. […]
In an embodiment, dose-response curves were estimated from the percentage of inhibition of infection (y-axis) against logo of concentration of each compound (x-axis) using the sigmoidal dose-response equation (variable slope) in GraphPad Prism version 5.00 for Windows (GraphPad Software, San Diego Calif. USA, www.graphpad.com). IC50 and IC90 values were determined from this curve. […]

## CC1(C)S[C@H]2N(C(=O)[C@]23CC=C(C(=O)OCc2ccccc2)[C@@H]3C(=O)c2ccccc2)[C@H]1C(=O)OC(c1ccccc1)c1ccccc1 [BSS-730A]
  inhibition of the replication: about 100%
